Assay results as given in US10954405B2, “Water-based diacetylene ink, hydrochromic polydiacetylene paper prepared using the ink, and use thereof” (INDUSTRY-UNIVERSITY COOPERATION FOUNDATION HANYANG …, priority 2015, dated 2021).

Assay: Solubility of DA-1 in water dependent upon temperature (FIG. 6C)
Assay type: physicochemical
Conditions: sample of DA-1 and water in a plastic bag on a paper printed with "A", temperature elevated; clearer at 25° C. and 30° C.
Method: FIGS. 6A-6C are a set of photographs illustrating the temperature-dependent reaction of the moisture test paper manufactured according to the moisture test paper manufacture example and solubility of DA-1 in water dependent upon temperature.
Referring to FIG. 6C when a sample including DA-1 and water was put into a plastic bag, the plastic bag was put on a paper on which “A” was printed, and temperature was elevated, the lower “A” began to be observed from about 20° C. and became clearer as temperature was elevated to 25° C. and 30° C.

temperature from which DA-1 dissolves in water (printed "A" under the sample began to be observed): about 20 °C
SMILES: CCCCCCCCCCCCC#CC#CCCCCCCCCC(=O)NCCCn1cc[n+](CC#N)c1 [DA-1]
